Test results from PubChem BioAssay (NCI).
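All cell lines were grown in 96-well plates and treated with compound for 48 hours. GI50 is the concentration that inhibits growth by half. Definition used: TGI = concentration required for complete inhibition of growth.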

Columns and labels:
Test in all cases: inhibition of tumour cell growth, NCI panel, 48 h
HOP-62 NSCLC = system: HOP-62 NSCLC
MDA-MB-231 breast = system: MDA-MB-231 breast
OVCAR-5 ovarian = system: OVCAR-5 ovarian
UO-31 renal = system: UO-31 renal
UACC-62 melanoma = system: UACC-62 melanoma
MALME-3M melanoma = system: MALME-3M melanoma
SF-295 CNS = system: SF-295 CNS
RXF 393 renal = system: RXF 393 renal
OVCAR-8 ovarian = system: OVCAR-8 ovarian
SF-539 CNS = system: SF-539 CNS

SMILES | TGI (HOP-62 NSCLC) [µM] | TGI (MDA-MB-231 breast) [µM] | TGI (OVCAR-5 ovarian) [µM] | TGI (UO-31 renal) [µM] | TGI (UACC-62 melanoma) [µM] | TGI (MALME-3M melanoma) [µM] | TGI (SF-295 CNS) [µM] | TGI (RXF 393 renal) [µM] | TGI (OVCAR-8 ovarian) [µM] | TGI (SF-539 CNS) [µM] | GI50 (HOP-62 NSCLC) [µM] | GI50 (OVCAR-5 ovarian) [µM] | GI50 (UO-31 renal) [µM] | GI50 (UACC-62 melanoma) [µM] | GI50 (SF-539 CNS) [µM] | GI50 (MALME-3M melanoma) [µM] | GI50 (SF-295 CNS) [µM] | GI50 (RXF 393 renal) [µM] | GI50 (OVCAR-8 ovarian) [µM]
COC(=O)C1CC(C=O)=C(SC)N1 (configuration not stated) | > 50 | > 50 | > 50 | > 50 | > 50 | > 50 | > 50 | > 50 | > 50 | – | – | – | – | – | – | – | – | – | –
Cc1ccc(Oc2cc(C)ccc2P(=O)(O)O)cc1 | > 100 | > 100 | – | > 100 | > 100 | – | > 100 | > 100 | > 100 | > 100 | – | – | – | – | – | – | – | – | –
C[N+](C)(C)c1nc(N)nc2c1ncn2C1OC(CO)C(O)C1O (configuration not stated) | > 100 | > 100 | > 100 | > 100 | > 100 | > 100 | – | > 100 | > 100 | > 100 | – | – | – | – | – | – | – | – | –
O.O=[Se](=O)(O)O.[NH-]C1CCCCC1[NH-].[Pt+2] (configuration not stated) | > 100 | – | > 100 | > 68 | 26.4 | 44 | > 92.1 | 30.5 | > 100 | > 100 | 37.5 | 26.7 | 7.66 | 4.25 | 25.3 | 8.23 | 15.4 | 4.63 | 7.55
CC1=NN(C(=O)Cc2ccccc2)C(=O)/C1=C\c1cccc(O)c1 | > 100 | – | > 100 | > 100 | – | > 100 | > 100 | – | > 100 | > 100 | – | – | – | – | – | – | – | – | –
Cc1cc(Br)cc(C)c1NC(=O)C(=O)C(C(=O)c1ccc(Cl)c(Cl)c1)C1OC(=O)c2ccccc21 (configuration not stated) | > 100 | – | > 100 | > 100 | > 100 | > 100 | > 100 | > 100 | > 100 | > 100 | – | – | – | – | – | – | – | – | –
CN1C(C(=O)Nc2ccccn2)=C(O)c2ccccc2S1(=O)=O | > 100 | – | > 100 | > 100 | > 100 | > 100 | > 100 | > 100 | > 100 | > 100 | – | – | – | – | – | – | – | – | –
O=[N+]([O-])c1ccc(-c2nc3ccccc3o2)cc1 | > 100 | – | > 100 | > 100 | > 100 | > 100 | > 100 | > 100 | > 100 | > 100 | – | – | – | – | – | – | – | – | –
COc1ccc(CNc2cnc3cc(N)ccc3n2)cc1OC | > 100 | – | – | > 100 | – | > 100 | > 100 | – | > 100 | > 100 | – | – | – | – | – | – | – | – | –
CN(NC(=O)/C(=C/C=C/c1ccccc1)NC(=O)c1ccccc1)C1=C(Cl)C(=O)[N+](c2ccccc2)=CC1 | 51.5 | 37.5 | > 100 | > 100 | – | > 100 | 81.5 | 53.8 | 40.3 | 38 | – | – | – | – | – | – | – | – | –
Cn1cnc([N+](=O)[O-])c1Sc1nncc2[nH]cnc12 | > 100 | > 100 | > 100 | > 100 | > 100 | > 100 | > 100 | – | > 100 | > 100 | – | – | – | – | – | – | – | – | –
